As a reminder, the IC50 is the concentration at which inhibition is half-maximal.

Each structure is given as a SMILES string.

The source of these data is patent US6716836B2, “Non-nucleoside reverse transcriptase inhibitors” (Boehringer Ingelheim (Canada) Ltd., priority 2001, dated 2004).

For one test, the target named is T1, HIV-1 RT wild type (WT) (Human immunodeficiency virus type 1 group M subtype B, UniProt P04585).
T1 construct: Heterodimeric RT was eluted using a descending gradient; made in house; host or cells: E. coli
The test can be described thus: Reverse Transcriptase (RT) assay, wild type enzyme. Type of test: biochemical. The source says: (§1) Among the enzymes for which Human Immunodeficiency Virus (HIV-1) encodes is a reverse transcriptase (1), so-named because it transcribes a DNA copy from an RNA template. This activity can be quantitatively measured in a cell-free enzyme assay, which has been previously described (2), and is based upon the observation that reverse transcriptase is able to use a synthetic template poly r(C) primed with oligo d(G) to transcribe a radio-labelled, acid-precipitable DNA strand utilising ^3H-dGTP as a substrate. The assay described below utilises the wild type (WT) enzyme, which is the predominant form of the enzyme observed with patients infected with HIV-1. Utilisation of mutant RT enzymes (for example, Y181C, prepared by site-directed mutagenesis in which the tyrosine residue at codon 181 has been replaced by a cysteine residue, or the mutants K103N, V106A and Y188C) and analogous assay conditions allows compounds to be evaluated for their effectiveness at inhibiting the mutant enzymes.
(§2) The HIV-1 RT expression clone, pKRT2, was obtained from Yale University (3). An overnight culture, grown in 2×YT medium (37° C., 225 rpm) (4), supplemented with 100 μg/mL ampicillin for positive selection was used to inoculate the 2×YT medium. The culture was incubated (37° C., 225 rpm) until it reached an OD600 of 0.6-0.9. At that time, the repressor inhibitor IPTG (isopropyl P-D-thiogalactopyranoside) was added to 0.5 mM, and the mixture was incubated for an additional 2 hours.
(§3) Purification of recombinant reverse transcriptase was performed using a combination of methods previously described (5). This procedure is summarised briefly as follows: E. Coli containing RT-1 wt or RT-1 (Y181 C) were suspended in 50 mM MES, pH 6.0 containing 10% glycerol, lysed in a French press, centrifuged, and the supernates discarded. Lysate pellets were extracted with buffer A (50 mM MES, pH 6.0, 100 mM KCl, 50 mM KPi, 10% glycerol, 0.02% hexyl-β-glucoside), and re-centrifuged; nucleic acid in supernates was precipitated with 0.1% polyethylenimine. […] Bound RT was eluted with a gradient of 0 to 1.0M
(§4) (NH4)2 SO4 in buffer B. Heparin-Sepharose fractions containing RT were concentrated (Amicon YM-30 membrane), combined with equal volumes of 2.0M (NH4)2SO4 in buffer B and injected onto a 21.5×150 mm TSK Phenyl-5PW HIC HPLC column (Phenomenex). Heterodimeric RT was eluted using a descending gradient of 1.0M to 0M (NH4)2SO4 in buffer B, concentrated, and stored at 4° C.
(§5) The 2.4× concentrated stock reaction mixture was aliquoted and stored at −20° C. The mixture is stable and can be thawed for use in each assay. This enzyme assay has been adapted to a 96 well microtiter plate system, and has been previously described (6). Tris buffer (50 mM, pH 7.8), vehicle (solvent diluted to match the compound dilution), or compounds in vehicle were dispensed into 96-well microtiter plates (10 μL/well; 3 wells/compound). The HIV-1 RT enzyme was thawed, diluted in 50 mM Tris pH 7.8 containing 0.05% Chaps to give 1.5 nM enzyme and 25 μL were dispensed per well. Ten μL of 0.5M EDTA were added to the first three wells of the microtiter plate. EDTA chelates the Mg^2+ present and prevents reverse transcription. This group served as background polymerisation, which was subtracted, from all other groups. Twenty-five μl of the 2.4× reaction mixture was added to all wells and the assay was allowed to incubate at room temperature for 30 minutes. The assay was terminated by precipitating the DNA in each well with 60 μL of sodium pyrophosphate (2% w/v) in 10% trichloroacetic acid (TCA) (10% w/v). The microtiter plate was incubated for 15 minutes at 4° C. and the precipitate was harvested onto #30 glass fibre paper (Schleicher & Schuell) using a Tomtech 96-well harvester. The filters were dried, placed in plastic bags with Betaplate scintillation cocktail (Pharmacia/LKB) and counted in the Betaplate counter (Pharmacia/LKB).
(§6) The calculation for percent inhibition is as follows: [formula] […]

Test [1] deals with T2, HIV-1 RT double mutant K103N/Y181C (Human immunodeficiency virus type 1 group M subtype B, UniProt P04585, K690N/Y768C).
T2 construct: Heterodimeric RT was eluted using a descending gradient; made in house; host or cells: E. coli (inferred; the text describes only wild type and Y181C preparations)
The test can be described thus: Reverse Transcriptase (RT) assay, double mutant enzyme. The test is classed as biochemical.
Excerpt: as §1, §2, §3, §4, §5, §6

Test [2] relates to HIV replication in T-lymphocytes, virus coding for mutant enzyme K103N/Y181C. Nature of the test: ELISA (p24) assay for activity in cell culture, mutant virus. The test is classed as cell-based. The settings on record: Human immunodeficiency virus 1, T-lymphocyte, read-out: EC50 K103N/Y181C. The procedure:
(§7) ELISA Assay for Assessment of Activity in Cell Culture
(§8) Compounds of the invention were tested for their ability to inhibit HIV replication in cell culture. Viruses coding for Wild type and mutant enzymes were used. T-lymphocytes were infected with the virus, infected cells were incubated in the presence of varying amounts of compounds of the invention, and an ELISA assay for the viral protein p24 was used to quantify viral replication. Table 9 lists the results as EC50 (nM).
For orientation: An ELISA detects its analyte on a solid surface through an enzyme-linked reagent.

In test [3] the test system is HIV replication in T-lymphocytes, virus coding for wild type enzyme. Nature of the test: ELISA (p24) assay for activity in cell culture, wild type virus. The test is classed as cell-based. The settings on record: Human immunodeficiency virus 1, T-lymphocyte, read-out: EC50 WT RT. The procedure: as §7, §8

For the molecule `CCN1c2ncc(CCOc3cccc4c3CS(=O)(=O)N4)cc2C(=O)N(C)c2cccnc21` [Compound 101], the figures for the IC50 (on HIV-1 RT wild type (WT); in test [1]) were less than 100 nM and 100 to 1000 nM, respectively. Also, the EC50 in test [2] was less than 100 nM.

With `CCN1c2ncc(CCOc3cccc4c3CS(=O)(=O)N4)cc2C(=O)N(C)c2ccc(F)nc21` [Compound 103], the IC50 was less than 100 nM on HIV-1 RT wild type (WT) and 100 to 1000 nM in test [1]. Moreover, the EC50 in test [3] and in test [2] was less than 100 nM in each case.

Turning to `CCN1c2ncc(CCOc3cccc4c3CS(=O)(=O)N4)cc2C(=O)Nc2c(C)cc(F)nc21` [Compound 110], the IC50 on HIV-1 RT wild type (WT) is less than 100 nM; in test [1] it was 100 to 1000 nM. Further, the EC50 in test [3] and in test [2] was less than 100 nM in each case.

With `CCN1c2ncc(CCOc3cccc4c3CS(=O)(=O)N4C)cc2C(=O)Nc2c(C)cc(C)nc21` [Compound 117], the IC50 (at HIV-1 RT wild type (WT); in test [1]) was less than 100 nM throughout. Moreover, the EC50 in test [3] is less than 100 nM.

Turning to `CCN1c2ncc(CCOc3cccc4c3CS(=O)(=O)N4CC(=O)O)cc2C(=O)N(C)c2cccnc21` [Compound 127], the IC50 is less than 100 nM on HIV-1 RT wild type (WT) and 100 to 1000 nM in test [1]. Also, the EC50 was less than 100 nM in test [3] and 100 to 1000 nM in test [2].

With `CCN1c2ncc(CCOc3cccc4c3CS(=O)(=O)N4CCO)cc2C(=O)N(C)c2cccnc21` [Compound 129], the IC50 (at HIV-1 RT wild type (WT); in test [1]) was less than 100 nM throughout. Besides, the EC50 in test [3] and in test [2] was less than 100 nM each time.

In the case of `CCN1c2ncc(CCOc3cccc4c3CS(=O)(=O)N4Cc3cc[n+]([O-])cc3)cc2C(=O)N(C)c2cccnc21` [Compound 130], the IC50 (on HIV-1 RT wild type (WT); in test [1]) was less than 100 nM each time. Moreover, the EC50 in test [3] and in test [2] was less than 100 nM in each case.

`CCN1c2ncc(CCOc3cccc4c3CS(=O)(=O)N4Cc3cccnc3)cc2C(=O)N(C)c2cccnc21` [Compound 131]: the IC50 (on HIV-1 RT wild type (WT); in test [1]) was less than 100 nM throughout. Further, the EC50 in test [3] and in test [2] was less than 100 nM each time.

With `CCN1c2ncc(CCOc3cccc4c3CS(=O)(=O)N4Cc3ccc[n+]([O-])c3)cc2C(=O)N(C)c2cccnc21` [Compound 132], the IC50 (at HIV-1 RT wild type (WT); in test [1]) was less than 100 nM in each case. In addition, the EC50 in test [3] and in test [2] was less than 100 nM each time.

With `CCN1c2ncc(CCOc3cccc4c3CS(=O)(=O)N4Cc3cc[n+]([O-])cc3)cc2C(=O)Nc2c(C)ccnc21` [Compound 136], the IC50 (on HIV-1 RT wild type (WT); in test [1]) was less than 100 nM in each case. In addition, the EC50 in test [3] and in test [2] was less than 100 nM throughout.

As to `CCN1c2ncc(CCOc3cccc4c3CS(=O)(=O)N4Cc3ccc[n+]([O-])c3)cc2C(=O)Nc2c(C)ccnc21` [Compound 137], the IC50 (at HIV-1 RT wild type (WT); in test [1]) was less than 100 nM throughout. Besides, the EC50 in test [3] and in test [2] was less than 100 nM each time.

On to `CCN1c2ncc(CCOc3cccc4c3CS(=O)(=O)N4CC(C)C(=O)O)cc2C(=O)N(C)c2cccnc21` (stereo not shown) [Compound 138], for which the IC50 (at HIV-1 RT wild type (WT); in test [1]) was less than 100 nM each time. The EC50 in test [3] and in test [2] was less than 100 nM in each case.

On to `CCN1c2ncc(CCOc3cccc4c3CCS(=O)(=O)N4CC(N)=O)cc2C(=O)N(C)c2cccnc21` [Compound 609], for which the IC50 (at HIV-1 RT wild type (WT); in test [1]) was less than 100 nM in each case.

Consider `CCN(CC)C(=O)N1c2cccc(OCCc3cnc4c(c3)C(=O)N(C)c3cccnc3N4CC)c2CCS1(=O)=O` [Compound 610], for which the IC50 (on HIV-1 RT wild type (WT); in test [1]) was less than 100 nM throughout.

For `CCN1c2ncc(CCOc3cccc4c3CCS(=O)(=O)N4C(=O)N(C)OC)cc2C(=O)N(C)c2cccnc21` [Compound 611], the IC50 (at HIV-1 RT wild type (WT); in test [1]) was less than 100 nM throughout.

Turning to `CCN(CC)CCN1c2cccc(OCCc3cnc4c(c3)C(=O)N(C)c3cccnc3N4CC)c2CCS1(=O)=O` [Compound 613], the IC50 (on HIV-1 RT wild type (WT); in test [1]) was less than 100 nM in each case.

As for `CCN1c2ncc(CCOc3cccc4c3CCS(=O)(=O)N4CC(=O)O)cc2C(=O)N(C)c2cccnc21` [Compound 614], the IC50 (on HIV-1 RT wild type (WT); in test [1]) was less than 100 nM throughout.

Turning to `CCN1c2ncc(CCOc3cccc4c3CCS(=O)(=O)N4C(=O)N3CCOCC3)cc2C(=O)N(C)c2cccnc21` [Compound 618], the IC50 (on HIV-1 RT wild type (WT); in test [1]) was less than 100 nM throughout.

On to `CCN1c2ncc(CCOc3cccc4c3CCS(=O)(=O)N4C(=O)N3CCCC3)cc2C(=O)N(C)c2cccnc21` [Compound 619], for which the IC50 (on HIV-1 RT wild type (WT); in test [1]) was less than 100 nM throughout.

For `CCN1c2ncc(CCOc3cccc4c3CCS(=O)(=O)N4C(=O)N3CCN(C)CC3)cc2C(=O)N(C)c2cccnc21` [Compound 620], the IC50 (at HIV-1 RT wild type (WT); in test [1]) was less than 100 nM in each case.

For the molecule `CCN1c2ncc(CCOc3cccc4c3CCS(=O)(=O)N4Cc3csc(C)n3)cc2C(=O)N(C)c2cccnc21` [Compound 622], the IC50 (at HIV-1 RT wild type (WT); in test [1]) was less than 100 nM in each case.

Regarding `CCN1c2ncc(CCOc3cccc4c3CCS(=O)(=O)N4CC(=O)N3CCCC3)cc2C(=O)N(C)c2cccnc21` [Compound 623], the IC50 (on HIV-1 RT wild type (WT); in test [1]) was less than 100 nM throughout.

For the molecule `CCN1c2ncc(CCOc3cccc4c3CCS(=O)(=O)N4CS(C)(=O)=O)cc2C(=O)N(C)c2cccnc21` [Compound 627], the IC50 (at HIV-1 RT wild type (WT); in test [1]) was less than 100 nM each time.

For the molecule `CCN1c2ncc(CCOc3cccc4c3CCS(=O)(=O)N4Cc3ccc[n+]([O-])c3)cc2C(=O)N(C)c2cccnc21` [Compound 632], the IC50 (on HIV-1 RT wild type (WT); in test [1]) was less than 100 nM throughout.

With `CCN1c2ncc(CCOc3cccc4c3CCS(=O)(=O)N4CCCC(N)=O)cc2C(=O)N(C)c2cccnc21` [Compound 635], the IC50 (at HIV-1 RT wild type (WT); in test [1]) was less than 100 nM throughout.

On to `CCN1c2ncc(CCOc3cccc4c3CCS(=O)(=O)N4Cc3ncc[nH]3)cc2C(=O)N(C)c2cccnc21` [Compound 642], for which the IC50 (on HIV-1 RT wild type (WT); in test [1]) was less than 100 nM each time.

Turning to `CCN1c2ncc(CCOc3cccc4c3CCNS4(=O)=O)cc2C(=O)N(C)c2cccnc21` [Compound 712], the concentration for half-maximal inhibition (IC50) (on HIV-1 RT wild type (WT); in test [1]) was less than 100 nM throughout.

In the case of `CCN1c2ncccc2NC(=O)c2cc(CCOc3cccc4c3C=CS(=O)(=O)N4C)cnc21` [Compound 805], the results for the IC50 (on HIV-1 RT wild type (WT); in test [1]) were less than 100 nM and 100 to 1000 nM, respectively.

For `CCN1C(=O)c2cc(CCOc3cccc4c3C=CS(=O)(=O)N4C)cnc2N(CC)c2ncccc21` [Compound 806], the IC50 (at HIV-1 RT wild type (WT); in test [1]) was less than 100 nM throughout.

For the molecule `CCN1c2ncc(CCOc3cccc4c3C=CS(=O)(=O)N4CC)cc2C(=O)N(C)c2cccnc21` [Compound 807], the IC50 (at HIV-1 RT wild type (WT); in test [1]) was less than 100 nM in each case.
